Results as given in patent US20080200405A1, “Drug Resistance Reversal In Neoplastic Disease” (priority 2007, published 2008).

What was measured:
TNFα = assay: Measurement of LPS Induced-TNFα in THP-1 Cells; type: cell-based, human; conditions: compound 10 uM, 5 ng/mL LPS
[1] = test system: bFGF-induced angiogenesis in the CAM model; assay: bFGF (FGF2)-stimulated CAM model; type: in vivo, chicken; conditions: for Mean % Inhibition ± SD / Mean Branch points ± SEM: bFGF 1 μg/ml
[2] = In vitro stability of OT-551 in rat plasma; type: in vitro ADME
Description: (§1) The active metabolite of OT-551 (Cyclopropanecarboxylic acid 1-hydroxy-2,2,6,6-tetramethyl-piperidin-4-yl ester) is TP-H. The objective of this analysis was to determine the in vitro half-life of OT-551 in rat, rabbit, dog, and human plasma under standardized incubation conditions.
(§2) OT-551 was incubated with pooled rat, rabbit, dog, and human plasma for various times under standardized incubation conditions. Pre-labeled tubes containing pooled plasma from rats, rabbits, dogs, and humans were pre-incubated in a shaking 37° C. water bath. A OT-551 solution was added to the tubes at a final concentration of 1000 ng/mL. Time zero samples (n=5) were immediately removed and transferred into tubes containing a stabilizer solution (DTPA, acetylcysteine and ascorbic acid), the LC/MS/MS assay internal standard and methanol. […] The tubes were vortexed, placed on ice, followed by centrifugation. One hundred-μL aliquots of the supernatant were transferred into HPLC sample vials. Additional tubes (n=5 at each time point) were incubated for 5, 10, 20, 30, 60, 120, and 240 minutes at 37° C. and thereafter processed. The amount of OT-551 and TP-H in each incubated sample was quantified using validated LC/MS/MS assays.

[3] = In vitro stability of OT-551 in dog plasma; type: in vitro ADME
Description: as §1, §2

[4] = In vitro stability of OT-551 in human plasma; type: in vitro ADME
Description: as §1, §2

For `CC1(C)CC(OC(=O)C2CC2)CC(C)(C)N1O.Cl` [OT-551, 1-hydroxy-4-cyclopropanecarbonyloxy-2,2,6,6-tetramethylpiperidine hydrochloride], the inhibition at 10 µM (TNFα; Homo sapiens, THP-1, read-out: Mean Percent Inhibition of TNF-alpha using 5 ng/mL LPS) was 68 ± 6%, the inhibition in vivo at 0.03 mg ([1]; Gallus gallus, bFGF/FGF2 1 ug, 30 ug injected, read-out: % Inhibition ± SEM) was 74 ± 4% and the “Branch pts ± SEM” value ([1]; bFGF/FGF2 1 ug, 30 ug injected) was 87 ± 3. The “Concentrations (ng/mL) of OT-551 in Rat Plasma” value ([2]; incubation time 0 min) was 806.50 ± 86.77 ng/mL, the “Concentrations (ng/mL) of OT-551 in Rat Plasma” value ([2]; incubation time 5 min) was 770.32 ± 20.66 ng/mL and the “Concentrations (ng/mL) of OT-551 in Rat Plasma” value ([2]; incubation time 10 min) was 745.77 ± 15.50 ng/mL. The “Concentrations (ng/mL) of OT-551 in Rat Plasma” value ([2]; incubation time 20 min) was 682.88 ± 16.94 ng/mL, the “Concentrations (ng/mL) of OT-551 in Rat Plasma” value ([2]; incubation time 30 min) was 613.79 ± 25.84 ng/mL and the “Concentrations (ng/mL) of OT-551 in Rat Plasma” value ([2]; incubation time 60 min) was 480.48 ± 10.69 ng/mL. For the same compound, the “Concentrations (ng/mL) of OT-551 in Rat Plasma” value ([2]; incubation time 120 min) was 277.94 ± 5.55 ng/mL, the “Concentrations (ng/mL) of OT-551 in Rat Plasma” value ([2]; incubation time 240 min) was 80.70 ± 2.02 ng/mL and the “Concentrations (ng/mL) of OT-551 in Dog Plasma” value ([3]; incubation time 0 min) was 771.12 ± 21.68 ng/mL. The “Concentrations (ng/mL) of OT-551 in Dog Plasma” value ([3]; incubation time 5 min) was 804.93 ± 17.45 ng/mL, the “Concentrations (ng/mL) of OT-551 in Dog Plasma” value ([3]; incubation time 10 min) was 811.14 ± 21.06 ng/mL and the “Concentrations (ng/mL) of OT-551 in Dog Plasma” value ([3]; incubation time 20 min) was 809.01 ± 18.58 ng/mL. The “Concentrations (ng/mL) of OT-551 in Dog Plasma” value ([3]; incubation time 30 min) was 789.53 ± 13.73 ng/mL, the “Concentrations (ng/mL) of OT-551 in Dog Plasma” value ([3]; incubation time 60 min) was 717.22 ± 25.73 ng/mL and the “Concentrations (ng/mL) of OT-551 in Dog Plasma” value ([3]; incubation time 120 min) was 608.14 ± 25.96 ng/mL. The “Concentrations (ng/mL) of OT-551 in Dog Plasma” value ([3]; incubation time 240 min) was 428.20 ± 12.03 ng/mL, the “Concentrations (ng/mL) of OT-551 in Human Plasma” value ([4]; incubation time 0 min) was 775.47 ± 22.50 ng/mL and the “Concentrations (ng/mL) of OT-551 in Human Plasma” value ([4]; incubation time 5 min) was 593.43 ± 7.55 ng/mL. For the same compound, the “Concentrations (ng/mL) of OT-551 in Human Plasma” value ([4]; incubation time 10 min) was 503.18 ± 20.90 ng/mL, the “Concentrations (ng/mL) of OT-551 in Human Plasma” value ([4]; incubation time 20 min) was 394.69 ± 6.72 ng/mL and the “Concentrations (ng/mL) of OT-551 in Human Plasma” value ([4]; incubation time 30 min) was 316.37 ± 7.67 ng/mL. The “Concentrations (ng/mL) of OT-551 in Human Plasma” value ([4]; incubation time 60 min) was 162.41 ± 9.77 ng/mL, the “Concentrations (ng/mL) of OT-551 in Human Plasma” value ([4]; incubation time 120 min) was 32.22 ± 2.63 ng/mL and the “Concentrations (ng/mL) of OT-551 in Human Plasma” value ([4]; incubation time 240 min) was 0.00 ± 0.00 ng/mL.
For `CC1(C)CC(O)CC(C)(C)N1O` [TEMPOL-H], the “Mean Percent Inhibition of TNF-alpha using 5 ng/mL LPS” value (TNFα) was 74 ± 8%, the “inhibition of bFGF-induced angiogenesis” value ([1]; 100-400 μg) was “dose-dependent inhibition” and the “Mean % Inhibition ± SD” value ([1]; 100 μg) was 20 ± 12%. The “Mean Branch points ± SEM” value ([1]; 100 μg) was 172 ± 12.4, the “Mean % Inhibition ± SD” value ([1]; 200 μg) was 45.3 ± 7.5 % and the “Mean Branch points ± SEM” value ([1]; 200 μg) was 147.2 ± 7.5. For the same compound, the “Mean % Inhibition ± SD” value ([1]; 400 μg) was 58.7 ± 10.9 %, the “Mean Branch points ± SEM” value ([1]; 400 μg) was 133.8 ± 10.8 and the “Mean % Inhibition ± SD” value ([1]; 800 μg) was 28.1 ± 6.8 %. The “Mean Branch points ± SEM” value ([1]; 800 μg) was 164.2 ± 6.7, the “Concentrations (ng/mL) of TP-H in Rat Plasma” value ([2]; OT-551 incubation time 0 min) was 10.23 ± 1.59 ng/mL and the “Concentrations (ng/mL) of TP-H in Rat Plasma” value ([2]; OT-551 incubation time 5 min) was 30.47 ± 1.65 ng/mL. For the same compound, the “Concentrations (ng/mL) of TP-H in Rat Plasma” value ([2]; OT-551 incubation time 10 min) was 50.91 ± 2.11 ng/mL, the “Concentrations (ng/mL) of TP-H in Rat Plasma” value ([2]; OT-551 incubation time 20 min) was 86.30 ± 3.30 ng/mL and the “Concentrations (ng/mL) of TP-H in Rat Plasma” value ([2]; OT-551 incubation time 30 min) was 119.63 ± 7.08 ng/mL. The “Concentrations (ng/mL) of TP-H in Rat Plasma” value ([2]; OT-551 incubation time 60 min) was 201.94 ± 4.19 ng/mL, the “Concentrations (ng/mL) of TP-H in Rat Plasma” value ([2]; OT-551 incubation time 120 min) was 304.66 ± 7.27 ng/mL and the “Concentrations (ng/mL) of TP-H in Rat Plasma” value ([2]; OT-551 incubation time 240 min) was 362.66 ± 7.50 ng/mL. The “Concentrations (ng/mL) of TP-H in Dog Plasma” value ([3]; OT-551 incubation time 0 min) was 0.00 ± 0.00 ng/mL, the “Concentrations (ng/mL) of TP-H in Dog Plasma” value ([3]; OT-551 incubation time 5 min) was 5.85 ± 0.73 ng/mL and the “Concentrations (ng/mL) of TP-H in Dog Plasma” value ([3]; OT-551 incubation time 10 min) was 8.77 ± 0.65 ng/mL. For the same compound, the “Concentrations (ng/mL) of TP-H in Dog Plasma” value ([3]; OT-551 incubation time 20 min) was 12.79 ± 0.74 ng/mL, the “Concentrations (ng/mL) of TP-H in Dog Plasma” value ([3]; OT-551 incubation time 30 min) was 16.22 ± 0.67 ng/mL and the “Concentrations (ng/mL) of TP-H in Dog Plasma” value ([3]; OT-551 incubation time 60 min) was 25.68 ± 1.04 ng/mL. For the same compound, the “Concentrations (ng/mL) of TP-H in Dog Plasma” value ([3]; OT-551 incubation time 120 min) was 39.31 ± 1.09 ng/mL, the “Concentrations (ng/mL) of TP-H in Dog Plasma” value ([3]; OT-551 incubation time 240 min) was 53.92 ± 1.68 ng/mL and the “Concentrations (ng/mL) of TP-H in Human Plasma” value ([4]; OT-551 incubation time 0 min) was 48.76 ± 2.84 ng/mL. For the same compound, the “Concentrations (ng/mL) of TP-H in Human Plasma” value ([4]; OT-551 incubation time 5 min) was 186.71 ± 4.58 ng/mL, the “Concentrations (ng/mL) of TP-H in Human Plasma” value ([4]; OT-551 incubation time 10 min) was 241.99 ± 8.05 ng/mL and the “Concentrations (ng/mL) of TP-H in Human Plasma” value ([4]; OT-551 incubation time 20 min) was 310.10 ± 8.54 ng/mL. For the same compound, the “Concentrations (ng/mL) of TP-H in Human Plasma” value ([4]; OT-551 incubation time 30 min) was 365.53 ± 14.44 ng/mL, the “Concentrations (ng/mL) of TP-H in Human Plasma” value ([4]; OT-551 incubation time 60 min) was 449.85 ± 9.73 ng/mL and the “Concentrations (ng/mL) of TP-H in Human Plasma” value ([4]; OT-551 incubation time 120 min) was 519.12 ± 19.52 ng/mL. The “Concentrations (ng/mL) of TP-H in Human Plasma” value ([4]; OT-551 incubation time 240 min) was 501.39 ± 11.33 ng/mL.
